The source of these data is patent US20090156687A1, “Fab I and inhibition of apicomplexan parasites” (priority 2003, published 2009).

In series [1] the test system is P. falciparum. Kind of series: In vitro synergy with cerulein. The arrangement: species or system Plasmodium falciparum. Particulars: cerulein (inhibitor of Fab F, B, H) with triclosan.
Series [2] has as its system Cryptosporidia. Type of series: cell-based.
In series [3] the test system is P. falciparum. As to the kind of experiment: microbe, parasite or virus in culture. Type of series: cell-based, Plasmodium falciparum. Particulars: for IC50: Plasmodium falciparum. The method, then: Because Fab I was located, the effects of triclosan on Plasmodium falciparum in vitro were investigated. For P. falciparum, the in vitro assays (Milhous et al., 1985; Oduola et al., 1988) were conducted using a modification of the semiautomated microdilution technique for assessing anti-folate antagonists. Instead of dialysed human plasma, 10% Albumax I (Gibco BRL), a serum-free substitute, was used to supplement the RPMI 1640 medium. All test compounds were dissolved in DMSO and diluted 400-fold into complete medium before serial dilution over 11 concentrations. Incubation was at 37° C. in 5% O2, 5% CO2 and 90% N2 for 48 h. [3H]-Hypoxanthine incorporation was measured as described previously (Milhous et al, 1985; Oduola et al, 1988).
P. falciparum. The in vitro assays (Oduala et al., 1988; Milhous et al., 1985) were conducted using a modification of the semiautomated microdilution technique for assessing antifolate antagonists. Instead of dialysed human plasma, 10% Albumaz I (Gibco BRL), a serum-free substitute, was used to supplement the RPMI 16-40 media. All test compounds were dissolved in DMSO and diluted 400-fold into complete media before serial dilution over 11 concentrations. Incubation was at 37° C. in 5% O2, 5% CO2 and 90% N2 for 48h, [3H]-Hypoxanthine incorporation was measured as described previously (13, 14).

Series [4] relates to T. gondii. As to the kind of experiment: T. gondii growth inhibition in human foreskin fibroblasts, 3H uracil uptake. Type of series: cell-based, Toxoplasma gondii. Particulars: for percentage inhibition of T. gondii uracil uptake: 125 nanograms per ml. The procedure: For T. gondii, growth inhibition was assessed over a 4-day period as described previously (Mack et al., 1984; Roberts et al., 1998; Zuther et al., 1999) using human foreskin fibroblasts (HFF) infected with 105 tachyzoites of the RH strain of T. gondii. The assays are based on microscopic visual inspection of infected and inhibitor treated cultures, and on quantitation of nucleic acid synthesis of the parasite by measuring uptake of 3H uracil into the parasite's nucleic acid. Uracil is not utilized by mammalian cells. Parasites present as tachyzoites (RH, Ptg., a clone derived from the Me49 strain), bradyzoites (Me49), and R5 mutants (mixed tachyzoites/bradyzoites of the Me49 strain that can be stage switched by culture conditions) (Bohne et al., 1993; Soete et al., 1994; Tomovo and Boothroyd, 1995; Weiss et al., 1992) are suitable for assay systems used to study effectsof inhibitors. Only the RH strain tachyzoites, cultured for up to 72 hours, had been used in previously reported assays. The use of Me49, Ptg, and R5 mutants are unique aspects of the methods used in these assays in this invention.
(§1) In these assays toxicity of a candidate inhibitor was assessed by its ability to prevent growth of human foreskin fibroblasts (HFF) after 4 days and after 8 days as measured by tritiated thymidine uptake and microscopic evaluation. Confluent monolayers of HFF were infected with tachyzoites and bradyzoites. Inhibitor was added one hour later. Non-toxic doses were used in parasite growth inhibition assays. Parasite growth was measured by ability to incorporate tritiated uracil during the last 48 hours of culture.
T. gondii in vitro. Growth inhibition was assessed over a 4-day period as described previously by Roberts et al., 1998; Zuther et al., 1999; and Mack et al., 1984, all incorporated by reference, using human foreskin fibroblasts (HFF) infected with 105 tachyzoites of the RH strain of T. gondii. Uptake of 3H uracil was determined. Evaluation of slides of preparations containing HFF, Toxoplasma and inhibitors were made.

Series [5] relates to EPSP synthase. Kind of series: EPSP synthase enzyme activity. Type of series: biochemical, T. gondii. The settings on record: 1 mM.
The target in series [6] is P. falciparum FAB I (Plasmodium falciparum, UniProt Q9BH77). As to the kind of experiment: Fab I enzyme activity (NADH dependent). It is filed as biochemical. The settings on record: purified P. falciparum FAB I.
P. falciparum FAB I, sequence (Q9BH77 entry or part of it): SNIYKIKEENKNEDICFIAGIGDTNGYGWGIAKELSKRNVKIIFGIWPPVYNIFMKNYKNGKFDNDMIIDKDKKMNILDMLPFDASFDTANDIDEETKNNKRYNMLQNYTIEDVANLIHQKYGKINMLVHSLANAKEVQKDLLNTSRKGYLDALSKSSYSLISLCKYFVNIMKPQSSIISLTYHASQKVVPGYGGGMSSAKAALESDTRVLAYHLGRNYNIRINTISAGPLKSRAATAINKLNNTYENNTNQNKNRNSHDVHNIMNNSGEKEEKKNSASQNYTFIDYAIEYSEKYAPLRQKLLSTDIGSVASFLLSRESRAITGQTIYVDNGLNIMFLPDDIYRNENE
Series [7] relates to human foreskin fibroblasts (HFF). As to the kind of experiment: Toxicity to host cells, tritiated thymidine uptake and microscopic evaluation. It is filed as cell-based. Particulars: at concentrations effective against T. gondii. The procedure: as §1
Series [8] concerns P. berghei. As to the kind of experiment: P. berghei murine model. It is filed as in vivo. Particulars: subcutaneously, 3 or 38 mg/kg.
The subject of series [9] is T. gondii. Particulars: literature (Waller et al., 1998; Zuther et al., 1999); cited from earlier work.
[10] abbreviates: 48 h, read-out: IC 50 when cultured with P Falciparum, strain TM91C234, 48 h.
Setting [11] is: 48 h, read-out: IC 50 when cultured with P Falciparum, strain W2 (chloroquine and pyrimethamine resistant), 48 h.
Where [12] appears, read: TM90C2A, 48 h, read-out: IC 50 when cultured with P Falciparum, strain TM90C2A (chloroquine and mefloquine resistant, admission isolate), 48 h.
Setting [13] is: TM90C2B, 48 h, read-out: IC 50 when cultured with P Falciparum, strain TM90C2B (recrudescent isolate, atovaquone resistant), 48 h.

Structures are written as SMILES. ≈ marks a conversion by molar mass, not a printed value. Like-named read-outs stand apart in the source and are kept apart here.

As to `C/C=C/C/C=C/CCC(=O)[C@H]1O[C@H]1C(N)=O`, the synergy in vitro entry in series [1] was “Synergy”.

As to `NC1C=CC=C(C(=O)O)C1` (racemic) [gabaculine], the “effect on Cryptosporidia” value in [2] is reported as “inhibitory effects”.

As for `O=C(O)CC[N+](=O)[O-]` [3NPA], in series [2], the “effect on Cryptosporidia” value was “inhibited”.

Take `Oc1cccc2cccnc12` [8-OH-quinoline]: the “effect on Cryptosporidia” value in [2] is “inhibitory effects”.

Take `CCN(CC)CCCC(C)Nc1ccnc2cc(Cl)ccc12` (stereo not shown) [Chloroquine]: the IC50 was determined as 0.0038 µg/mL (≈ 0.0119 µM) in [3] (48 h, read-out: IC 50 when cultured with P Falciparum, strain D6 (chloroquine and pyrimethamine susceptible), 48 h); 0.0461 µg/mL (≈ 0.144 µM) in [3] (setting [10]); 0.162 µg/mL (≈ 0.508 µM) in [3] (setting [11]); 0.0573 µg/mL (≈ 0.179 µM) in [3] (setting [12]); 0.0827 µg/mL (≈ 0.259 µM) in [3] (setting [13]); 0.16 µg/mL (≈ 0.5 µM) in [3] (W2, read-out: IC50 against pyrimethamine resistant P. falciparum (W2), strain W2, text value).

Turning to `OC(c1cc(C(F)(F)F)nc2c(C(F)(F)F)cccc12)C1CCCCN1` (stereo not shown) [Mefloquine], the IC50 in series [3] (48 h, read-out: IC 50 when cultured with P Falciparum) was determined as 0.0053 µg/mL (≈ 0.014 µM); in series [3] (setting [10]), 0.0196 µg/mL (≈ 0.0518 µM); in series [3] (setting [11]), 0.002 µg/mL (≈ 0.00529 µM); in series [3] (setting [12]) it was 0.0245 µg/mL (≈ 0.0648 µM); in series [3] (setting [13]), 0.0193 µg/mL (≈ 0.051 µM).

As for `O=C(O)CNCP(=O)(O)O` [NPMG], the “in vitro growth of asexual erythrocytic forms” value in series [3] (P. falciparum) is recorded as “inhibition”. Besides, the “effect on Cryptosporidia” value in series [2] is “inhibitory effects”. In addition, in [4] (RH strain), the “uptake of tritiated uracil by tachyzoites” value is “inhibited”. Moreover, the “EPSP synthase enzyme activity” value in [5] is listed as “inhibition”.

Turning to `O=C(NO)c1ccccc1O` [SHAM], the “effect on Cryptosporidia” value in series [2] is given as “inhibitory effects”.

In the case of `Oc1cc(Cl)ccc1Oc1ccc(Cl)cc1Cl` [Triclosan, 5-chloro-2-[2,4 dichloropheoxyl] phenol], the IC50 in series [3] (48 h, strain TM91C234, 48 h, read-out: IC 50 when cultured with P Falciparum) was 1.8 µg/mL (≈ 6.22 µM); in series [3] (TM90C2A, 48 h, read-out: IC 50 when cultured with P Falciparum) it was 1.89 µg/mL (≈ 6.53 µM); in series [3] (TM90C2B, 48 h, strain TM90C2B (recrudescent isolate, atovaquone resistant), 48 h, read-out: IC 50 when cultured with P Falciparum) it was 1.33 µg/mL (≈ 4.59 µM); in [3] (W2, strain W2, text value, read-out: IC50 against pyrimethamine resistant P. falciparum (W2)), 0.15 µg/mL (≈ 0.518 µM); in [3] (range over strains, read-out: IC50, growth and survival of P. falciparum), 0.15 to 2 µg/mL (≈ 0.518 to 6.91 µM); in [4] (Toxoplasma gondii, Fibroblast, 96 h, read-out: IC50, T. gondii uracil uptake), 0.062 µg/mL (≈ 0.214 µM). In addition, in [6], the “FAB I enzyme activity” value is on record as “inhibited”. The figures for the “toxicity to host cells / host cells uptake of thymidine” value in series [7] and in series [7] (listed as triclosan) were “no toxicity” and “no inhibitory effect”, respectively. The death result in series [8] is reported as “prevented death”. The parasitemia result in series [8] was “cleared parasitemia”. For the same molecule, the “toxicity in P. berghei murine model” value in [8] is “nontoxic”. The “percentage inhibition of T. gondii uracil uptake” value in series [4] (day 1, separate experiment) was 20%; in [4] (day 4, separate experiment) it was 72%. In series [4] (RH strain in HFF, 4 days after infection), the “IC50, T. gondii uracil uptake” value is 62 nanograms/ml.

With `C[C@@H](Oc1ccc(Oc2ncc(Cl)cc2F)cc1)C(=O)O` [clodinafop], the “inhibition of T. gondii” value in series [4] (1 micromolar) was “ionhibited”.

For `C=C/C(C)=C/[C@@]1(C)SC(=O)C(C)=C1O` [thiolactomycin], the “growth of T. gondii in vitro” value in series [9] is recorded as “restrict the growth”.
